# Measured values: patent US11161862B2, “Phosphonium-ion tethered tetracycline drugs for treatment of cancer” (Oxford University Innovation Limited, priority 2017, dated 2021)
# Structures can show the parent of a compound that is named as a salt.
# Test system: MDA-231 cancer cells
# Experiment: Inhibition of proliferation assay: cell confluence (IncuCyte live cell imaging)
# Assay type: cell-based
# Details: MDA-231 cells; concentration 10 μM; IncuCyte imaging every 3 h over 4-5 d; relative confluence normalised to time zero
# Excerpt: Inhibition of Proliferation Assay
# The confluence value is a surrogate for cell proliferation and growth. The value is expressed as a percent confluence, which represents the fraction of culture dish-surface that is occupied by cells. As the number of cells in the dish increases over time due to proliferation, so will their coverage of that surface increase. Expansion of the cell population on the cell culture-dish surface and confluence have mostly a linear relationship until the cells on the plate surface begin to reach saturation or maximum density.
# Confluence is determined based on image analysis. Image based software can identify objects in the image field base on changes to pixel density in a grey scale image. The software can then assign a mask to those pixels within the object. Objects can be ‘gated’ out based on size and shape. To determine cell confluence, images of cells are first masked as objects. The surface area of the image that is masked is measured and compared to the total surface area of the culture dish surface to obtain a percent confluence.
# MDA-231 cancer cells were obtained from ATCC. Cells were cultured in Dulbecco's Modified Eagle Medium (DMEM) supplemented with 10% Fetal Bovine Serum (FBS), 2 mM Glutamax, 1 mM Non Essential Amino Acid (NEAA) solution and 1 mM sodium pyruvate. […] Final DMSO concentrations were […]. Images were acquired with an IncuCyte Live Cell Imaging microscopy (Essen Bioscience) at every 3 h under cell culture conditions with 10× objective over 4-5 d. Cell confluence was calculated from one field of view per well using the IncuCyte in-built algorithm. Relative confluence values were obtained by normalising each value to the time zero value in each sample.
row,SMILES,% Confluence
1,"C[C@H]1c2cccc(O)c2C(=O)C2=C(O)[C@]3(O)C(=O)C(C(N)=O)=C(O)[C@@H](N(C)C)[C@@H]3[C@@H](O)[C@@H]21 [Doxycycline, reference compound]",98.7%
2,"COc1ccc([P+](CCCCCCCCCCCC(=O)Nc2ccc3c(c2O)C(=O)C2=C(O)[C@]4(O)C(=O)C(C(N)=O)=C(O)[C@@H](N(C)C)[C@@H]4[C@@H](O)[C@@H]2[C@H]3C)(c2ccc(OC)cc2)c2ccc(OC)cc2)cc1 [Example 1, (11-{[(5R,5aR,6S,6aR,7S,10aS)-9-carbamoyl-7-(dimethylamino)-1,6,8,10a,11-pentahydroxy-5-methyl-10,12-dioxo-5,5a,6,6a,7,10,10a,12-octahydrotetracen-2-yl]carbamoyl}undecyl)tris(4-methoxyphenyl)phosphonium formate]",17%
3,"C[C@H]1c2ccc(NC(=O)CCCCCCC[P+](C)(c3ccccc3)c3ccccc3)c(O)c2C(=O)C2=C(O)[C@]3(O)C(=O)C(C(N)=O)=C(O)[C@@H](N(C)C)[C@@H]3[C@@H](O)[C@@H]21.[Cl-] [Example 2, (7-{[(5R,5aR,6S,6aR,7S,10aS)-9-carbamoyl-7-(dimethylamino)-1,6,8,10a,11-pentahydroxy-5-methyl-10,12-dioxo-5,5a,6,6a,7,10,10a,12-octahydrotetracen-2-yl]carbamoyl}heptyl)(methyl)diphenylphosphonium chloride]",91.7%
4,"C[C@H]1c2ccc(NC(=O)CCCCCCC[P+](C)(C)c3ccccc3)c(O)c2C(=O)C2=C(O)[C@]3(O)C(=O)C(C(N)=O)=C(O)[C@@H](N(C)C)[C@@H]3[C@@H](O)[C@@H]21.[Cl-] [Example 3, (7-{[(5R,5aR,6S,6aR,7S,10aS)-9-carbamoyl-7-(dimethylamino)-1,6,8,10a,11-pentahydroxy-5-methyl-10,12-dioxo-5,5a,6,6a,7,10,10a,12-octahydrotetracen-2-yl]carbamoyl}heptyl)dimethylphenylphosphonium chloride]",62.5%
5,"C[C@H]1c2ccc(NC(=O)CCCCCCC[P+](C)(C)C)c(O)c2C(=O)C2=C(O)[C@]3(O)C(=O)C(C(N)=O)=C(O)[C@@H](N(C)C)[C@@H]3[C@@H](O)[C@@H]21.[Cl-] [Example 4, (7-{[(5R,5aR,6S,6aR,7S,10aS)-9-carbamoyl-7-(dimethylamino)-1,6,8,10a,11-pentahydroxy-5-methyl-10,12-dioxo-5,5a,6,6a,7,10,10a,12-octahydrotetracen-2-yl]carbamoyl}heptyl)trimethylphosphonium chloride]",111.8%
6,"C[C@H]1c2ccc(NC(=O)CCCCCCCCCCC[P+](C)(c3ccccc3)c3ccccc3)c(O)c2C(=O)C2=C(O)[C@]3(O)C(=O)C(C(N)=O)=C(O)[C@@H](N(C)C)[C@@H]3[C@@H](O)[C@@H]21.[Cl-] [Example 5, (11-{[(5R,5aR,6S,6aR,7S,10aS)-9-carbamoyl-7-(dimethylamino)-1,6,8,10a,11-pentahydroxy-5-methyl-10,12-dioxo-5,5a,6,6a,7,10,10a,12-octahydrotetracen-2-yl]carbamoyl}undecyl)(methyl)diphenylphosphonium chloride]",24.9%
7,"C[C@H]1c2ccc(NC(=O)CCCCCCCCCCC[P+](C)(C)C)c(O)c2C(=O)C2=C(O)[C@]3(O)C(=O)C(C(N)=O)=C(O)[C@@H](N(C)C)[C@@H]3[C@@H](O)[C@@H]21.[Cl-] [Example 6, (11-{[(5R,5aR,6S,6aR,7S,10aS)-9-carbamoyl-7-(dimethylamino)-1,6,8,10a,11-pentahydroxy-5-methyl-10,12-dioxo-5,5a,6,6a,7,10,10a,12-octahydrotetracen-2-yl]carbamoyl}undecyl)trimethylphosphonium chloride]",57.7%
8,"Cc1cccc([P+](CCCCCCCCCCCC(=O)Nc2ccc3c(c2O)C(=O)C2=C(O)[C@]4(O)C(=O)C(C(N)=O)=C(O)[C@@H](N(C)C)[C@@H]4[C@@H](O)[C@@H]2[C@H]3C)(c2cccc(C)c2)c2cccc(C)c2)c1.[Cl-] [Example 7, (11-{[(5R,5aR,6S,6aR,7S,10aS)-9-carbamoyl-7-(dimethylamino)-1,6,8,10a,11-pentahydroxy-5-methyl-10,12-dioxo-5,5a,6,6a,7,10,10a,12-octahydrotetracen-2-yl]carbamoyl}undecyl)tris(3-methylphenyl)phosphonium chloride]",29.4%
9,"C[C@H]1c2ccc(NC(=O)CCCCCCC[P+](c3ccccc3)(c3ccccc3)c3cnn(C)c3)c(O)c2C(=O)C2=C(O)[C@]3(O)C(=O)C(C(N)=O)=C(O)[C@@H](N(C)C)[C@@H]3[C@@H](O)[C@@H]21.[Cl-] [Example 8, (7-{[(5R,5aR,6S,6aR,7S,10aS)-9-carbamoyl-7-(dimethylamino)-1,6,8,10a,11-pentahydroxy-5-methyl-10,12-dioxo-5,5a,6,6a,7,10,10a,12-octahydrotetracen-2-yl]carbamoyl}heptyl)(1-methyl-1H-pyrazol-4-yl)diphenylphosphonium chloride]",45.6%
10,"C[C@H]1c2ccc(NC(=O)CCCCCCCC[P+](c3ccccc3)(c3ccccc3)c3cnn(C)c3)c(O)c2C(=O)C2=C(O)[C@]3(O)C(=O)C(C(N)=O)=C(O)[C@@H](N(C)C)[C@@H]3[C@@H](O)[C@@H]21.[Cl-] [Example 9, (8-{[(5R,5aR,6S,6aR,7S,10aS)-9-carbamoyl-7-(dimethylamino)-1,6,8,10a,11-pentahydroxy-5-methyl-10,12-dioxo-5,5a,6,6a,7,10,10a,12-octahydrotetracen-2-yl]carbamoyl}octyl)(1-methyl-1H-pyrazol-4-yl)diphenylphosphonium chloride]",55.5%
11,"C[C@H]1c2ccc(NC(=O)CCCCCCCCCCC[P+](c3ccccc3)(c3ccccc3)c3cnn(C)c3)c(O)c2C(=O)C2=C(O)[C@]3(O)C(=O)C(C(N)=O)=C(O)[C@@H](N(C)C)[C@@H]3[C@@H](O)[C@@H]21.[Cl-] [Example 10, (11-{[(5R,5aR,6S,6aR,7S,10aS)-9-carbamoyl-7-(dimethylamino)-1,6,8,10a,11-pentahydroxy-5-methyl-10,12-dioxo-5,5a,6,6a,7,10,10a,12-octahydrotetracen-2-yl]carbamoyl}undecyl)(1-methyl-1H-pyrazol-4-yl)diphenylphosphonium chloride]",12.4%
12,"C[C@H]1c2ccc(NC(=O)CCCCCCCCC[P+](c3ccccc3)(c3ccccc3)c3cnn(C)c3)c(O)c2C(=O)C2=C(O)[C@]3(O)C(=O)C(C(N)=O)=C(O)[C@@H](N(C)C)[C@@H]3[C@@H](O)[C@@H]21.[Cl-] [Example 11, (9-{[(5R,5aR,6S,6aR,7S,10aS)-9-carbamoyl-7-(dimethylamino)-1,6,8,10a,11-pentahydroxy-5-methyl-10,12-dioxo-5,5a,6,6a,7,10,10a,12-octahydrotetracen-2-yl]carbamoyl}nonyl)(1-methyl-1H-pyrazol-4-yl)diphenylphosphonium chloride]",70.1%
13,"C[C@H]1c2ccc(NC(=O)CCCCCCCCCC[P+](c3ccccc3)(c3ccccc3)c3cnn(C)c3)c(O)c2C(=O)C2=C(O)[C@]3(O)C(=O)C(C(N)=O)=C(O)[C@@H](N(C)C)[C@@H]3[C@@H](O)[C@@H]21.[Cl-] [Example 12, (10-{[(5R,5aR,6S,6aR,7S,10aS)-9-carbamoyl-7-(dimethylamino)-1,6,8,10a,11-pentahydroxy-5-methyl-10,12-dioxo-5,5a,6,6a,7,10,10a,12-octahydrotetracen-2-yl]carbamoyl}decyl)(1-methyl-1H-pyrazol-4-yl)diphenylphosphonium chloride]",45.4%
14,"CC(C)[P+](CCCCCCCCCCCC(=O)Nc1ccc2c(c1O)C(=O)C1=C(O)[C@]3(O)C(=O)C(C(N)=O)=C(O)[C@@H](N(C)C)[C@@H]3[C@@H](O)[C@@H]1[C@H]2C)(c1ccccc1)c1ccccc1 [Example 13, (11-{[(5R,5aR,6S,6aR,7S,10aS)-9-carbamoyl-7-(dimethylamino)-1,6,8,10a,11-pentahydroxy-5-methyl-10,12-dioxo-5,5a,6,6a,7,10,10a,12-octahydrotetracen-2-yl]carbamoyl}undecyl)diphenyl(propan-2-yl)phosphonium chloride]",35.1%

# Same assay, conditions: MDA-231 cells; concentration 50 μM; IncuCyte imaging every 3 h over 4-5 d; relative confluence normalised to time zero
row,SMILES,% Confluence
1,"C[C@H]1c2cccc(O)c2C(=O)C2=C(O)[C@]3(O)C(=O)C(C(N)=O)=C(O)[C@@H](N(C)C)[C@@H]3[C@@H](O)[C@@H]21 [Doxycycline, reference compound]",91%
